Where two headings read alike, the source gives them in different places.
Legend:
Type in all cases: cell-based
[1] = target: T1, CNR1 (also known as CB1) (Homo sapiens, UniProt P21554); settings: read-out: CNR1 cAMP EC50
[2] = target: T1, CNR1 (also known as CB1); design: β-galactosidase enzyme fragment (complementation partner); settings: read-out: CNR1 β-Arrestin EC50
[3] = target: T2, CNR2 (also known as CB2) (Homo sapiens, UniProt P34972); assay: β-arrestin GPCR assay (PathHunter), CNR2; design: β-galactosidase enzyme fragment (complementation partner); settings: β-arrestin recruitment
[4] = target: T2, CNR2 (also known as CB2); assay: cAMP competitive inhibition immunoassay (HitHunter), CNR2; settings: cAMP assay

T1 sequence (P21554 whole entry, the tested form may be a part): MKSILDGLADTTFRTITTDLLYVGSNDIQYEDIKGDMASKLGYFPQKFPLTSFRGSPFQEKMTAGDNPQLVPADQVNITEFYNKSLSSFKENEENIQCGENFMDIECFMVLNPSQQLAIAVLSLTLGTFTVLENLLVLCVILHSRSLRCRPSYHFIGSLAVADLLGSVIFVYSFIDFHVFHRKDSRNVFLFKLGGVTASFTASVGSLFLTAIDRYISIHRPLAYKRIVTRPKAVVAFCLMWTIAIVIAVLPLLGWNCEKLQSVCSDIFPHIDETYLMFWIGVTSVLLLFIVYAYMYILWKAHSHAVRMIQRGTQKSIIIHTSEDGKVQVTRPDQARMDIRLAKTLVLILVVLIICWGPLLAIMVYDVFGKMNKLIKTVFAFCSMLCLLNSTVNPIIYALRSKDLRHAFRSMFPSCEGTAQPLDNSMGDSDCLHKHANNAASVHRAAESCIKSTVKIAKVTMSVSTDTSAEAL
T2 sequence (P34972 whole entry, the tested form may be a part): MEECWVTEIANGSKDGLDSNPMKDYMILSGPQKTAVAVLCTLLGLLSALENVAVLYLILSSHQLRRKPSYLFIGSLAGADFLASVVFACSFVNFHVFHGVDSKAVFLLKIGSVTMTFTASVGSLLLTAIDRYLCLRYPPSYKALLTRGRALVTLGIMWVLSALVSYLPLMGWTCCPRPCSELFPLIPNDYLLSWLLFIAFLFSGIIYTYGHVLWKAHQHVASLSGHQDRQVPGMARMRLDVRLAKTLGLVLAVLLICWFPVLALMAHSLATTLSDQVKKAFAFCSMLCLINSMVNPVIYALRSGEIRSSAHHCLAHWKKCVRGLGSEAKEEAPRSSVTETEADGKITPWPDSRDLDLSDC

CCCCCc1cc(O)c2c(c1)OC(C)(C)[C@@H]1CCC(CO)=C[C@@H]21 [Example 11-OH-THC]
EC50 [1]: 10.8 nM | EC50 [2]: > 16700 nM | EC50 [3]: > 16700 nM | EC50 [4]: 571 nM
